This note sets out measurements from patent US20230257419A1, “PHARMACEUTICAL COMPOSITION FOR PREVENTING OR TREATING A PERIODONTAL DISEASE OR DISLOCATED TRAUMATIC TOOTH” (HYSENSBIO, priority 2020, published 2023).

In one assay the test system is BSP gene. Description: BSP mRNA expression by real-time PCR in human periodontal ligament cells. It counts as cell-based. Conditions: average of three experiments.
Another assay has as its system CAP gene. In words: CAP mRNA expression by real-time PCR in human periodontal ligament cells. The class given is cell-based. Conditions: average of three experiments. Background: Quantitative PCR measures a nucleic acid by following its amplification.
Another assay concerns periostin gene. Description: Periostin mRNA expression by real-time PCR in human periodontal ligament cells. The settings on record: average of three experiments. It counts as cell-based.
Assay [1] relates to three-wall periodontal defect. Description: Periodontium regeneration in periodontium damage animal model, histological evaluation. The class given is in vivo. The settings on record: beagle dog, collagen sponge containing 50 μg peptide, 3 months. As for the experimental part: Four beagle dogs (12-16 kg; […]) were anesthetized by inhalation of Geloran, intravenously injected with Zoletil (5 mg/kg) and Xylazine (0.2-0.5 mg/kg), and then treated with Lidocaine (Lidocaine 2% with 1:80,000 epinephrine). The 4th premolar tooth and the 2nd molar tooth were extracted from the mandible of the beagle dog, and then the dog waited for healing for 3 months. After 3 months of healing, three-wall periodontal defect was induced on distal and mesial surfaces of a 1st molar tooth. Then, a periodontal damage of 4×4×4 mm was formed with the buccal and distal bones remaining around the tooth root, the root alveolar bone is securely removed, tooth root planing was performed using a curette, and then an incisor groove was formed using a ½ round bur. Next, an experimental group was transplanted with a collagen sponge (a peptide solution obtained by dissolving a peptide in physiological saline at a concentration of 1 μg/μl was prepared, 50 μl of a peptide solution was added to the EP tube, and then was soaked for 5 minutes to prepare the collagen sponge) including a 50 μl of peptide (SEQ ID NO: 16 of group 2) prepared in Example 1 at a defect region, After the defect, only a negative control (NC) without any treatment and a collagen sponge (prepared by soaking a collagen sponge in 50 μl of physiological saline for 5 minutes) was placed on the inner bone wall of a bone defect and a transplanted negative control (NC+Plug) was sacrificed 3 months later, and histological evaluation was performed. After 3 months, a beagle dog was sacrificed by administering an excessive amount (90-120 mg/kg) of pentobarbital. A tooth of the beagle dog was extracted, fixed with 10% formalin, and then calcium was removed by adding 5% formic acid, molded, and embedded in paraffin, to obtain a tissue section with a thickness of 5 μm. The obtained tissue section was stained with hematoxylin and eosin or collagen stained (Masson's Trichrome Staining) to confirm periodontal ligament regeneration and then analyzed using by an optical microscope equipped with a digital camera (LEICA ICC50 camera, Germany). After extraction of a 4th premolar tooth and a 2nd molar tooth from the mandibles of 4 beagle dogs, they waited for 3 months to heal, and After 3 months of healing, the 3-mural periodontal defect was induced in distal and mesial surfaces of a 1st molar tooth. Then, periodontium damage of 4×4×4 mm was formed with the buccal and distal bones remaining around the tooth root, the root alveolar bone is securely removed, tooth root planing was performed using a curette, and then an incisor groove was formed. Next, the experimental group transplanted a collagen sponge containing 50 μg of the peptide (SEQ ID NO: 16) of Example 1 to the defect region, and after the defect, a negative control (NC) without any treatment and control (NC+Plug) transplanted by placing only a collagen sponge on the inner bone wall of the bone defect was sacrificed 3 months later for histological evaluation.

Where [2] appears, read: Masson's trichrome stain, FIG. 6.

Experimental for BSP gene: (§1) Specifically, all experiments were performed with the consent of the patient after obtaining approval from the Hospital's Institutional Review Board, a periodontal ligament tissue attached to the root of a wisdom tooth was isolated and cut into double-sided pieces, placed in a 60 mm dish, and covered with a cover slip, and then cultured in Dulbecco's degenerated Eagle's Medium.
(§2) Total RNA from human periodontal ligament cells was isolated using a TRIzol reagent. cDNA was synthesized using 2 μg of total RNA, 1 μl of reverse transcriptase, and 0.5 μg of oligo (dT). cDNA of synthesized human periodontal ligament cells was used for a real-time polymerase chain reaction using primers shown in Table 2 below. A real-time polymerase chain reaction was performed in ABI PRISM 7500 sequence detection system (Applied Biosystems) using SYBR GREEN PCR Master Mix (Takara, Japan). The real-time polymerase chain reaction was performed at 94° C., 1 min; 95° C., 15 sec-60° C., 34 sec was performed under the condition of repeating 40 cycles. Results were analyzed using a comparative cycle threshold (CT) method.
Experimental for CAP gene: as §1, §2
Experimental for periostin gene: as §1, §2

Regarding 1 (KYKQRKKNYK) [compound 1], the “BSP gene expression, relative mRNA expression level compared to the control, Average” value with BSP gene is reported as 2.092. Besides, in the assay on CAP gene, the “CAP gene expression, relative mRNA expression level compared to the control, Average” value is 2.092. Also, the “PERIOSTIN gene expression, relative mRNA expression level compared to the control, Average” value in the assay on periostin gene was determined as 2.092.
Consider 2 (KYKQRKRNYK) [compound 2], for which the “BSP gene expression, relative mRNA expression level compared to the control, Average” value with BSP gene is on record as 2.361. In the assay on CAP gene, the “CAP gene expression, relative mRNA expression level compared to the control, Average” value was 2.361. For the same substance, in the assay with periostin gene, the “PERIOSTIN gene expression, relative mRNA expression level compared to the control, Average” value is given as 2.361.
For the substance 3 (KYKQRRKNYK) [compound 3], the “BSP gene expression, relative mRNA expression level compared to the control, Average” value in the assay on BSP gene was found to be 2.572. Moreover, the “CAP gene expression, relative mRNA expression level compared to the control, Average” value in the assay on CAP gene was determined as 2.572. Besides, the “PERIOSTIN gene expression, relative mRNA expression level compared to the control, Average” value in the assay on periostin gene is listed as 2.572.
As to 4 (KYKQRRRNYK) [compound 4], the “BSP gene expression, relative mRNA expression level compared to the control, Average” value in the assay with BSP gene came to 2.702. Moreover, in the assay on CAP gene, the “CAP gene expression, relative mRNA expression level compared to the control, Average” value turned out to be 2.702. In addition, the “PERIOSTIN gene expression, relative mRNA expression level compared to the control, Average” value in the assay with periostin gene was determined as 2.702.
Turning to 5 (KYKQKKKNYK) [compound 5], in the assay on BSP gene, the “BSP gene expression, relative mRNA expression level compared to the control, Average” value is 2.67. Besides, the “CAP gene expression, relative mRNA expression level compared to the control, Average” value in the assay on CAP gene amounted to 2.67. Moreover, the “PERIOSTIN gene expression, relative mRNA expression level compared to the control, Average” value in the assay with periostin gene is 2.67.
Consider 6 (KYKQKRKNYK) [compound 6], for which, in the assay on BSP gene, the “BSP gene expression, relative mRNA expression level compared to the control, Average” value was 2.705. Moreover, in the assay with CAP gene, the “CAP gene expression, relative mRNA expression level compared to the control, Average” value was 2.705. In the assay on periostin gene, the “PERIOSTIN gene expression, relative mRNA expression level compared to the control, Average” value was 2.705.
Take 7 (KYKQKKRNYK) [compound 7]: the “BSP gene expression, relative mRNA expression level compared to the control, Average” value with BSP gene came out at 2.215. Also, the “CAP gene expression, relative mRNA expression level compared to the control, Average” value with CAP gene is reported as 2.451. For the same substance, the “PERIOSTIN gene expression, relative mRNA expression level compared to the control, Average” value with periostin gene worked out at 2.329.
Turning to 8 (KYKQKRRNYK) [compound 8], in the assay with BSP gene, the “BSP gene expression, relative mRNA expression level compared to the control, Average” value was 2.021. Besides, the “CAP gene expression, relative mRNA expression level compared to the control, Average” value with CAP gene is reported as 2.021. Besides, the “PERIOSTIN gene expression, relative mRNA expression level compared to the control, Average” value in the assay with periostin gene came out at 2.021.
In the case of 9 (KYKQRKKSYK) [compound 9], in the assay on BSP gene, the “BSP gene expression, relative mRNA expression level compared to the control, Average” value is reported as 2.211. Moreover, the “CAP gene expression, relative mRNA expression level compared to the control, Average” value in the assay with CAP gene amounted to 2.211. Moreover, the “PERIOSTIN gene expression, relative mRNA expression level compared to the control, Average” value with periostin gene turned out to be 2.211.
10 (KYKQRKRSYK) [compound 10]: the “BSP gene expression, relative mRNA expression level compared to the control, Average” value in the assay with BSP gene was determined as 2.811. In addition, the “CAP gene expression, relative mRNA expression level compared to the control, Average” value in the assay on CAP gene was determined as 2.811. In addition, the “PERIOSTIN gene expression, relative mRNA expression level compared to the control, Average” value in the assay on periostin gene was 2.811.
Consider 11 (KYKQRRKSYK) [compound 11], for which the “BSP gene expression, relative mRNA expression level compared to the control, Average” value in the assay on BSP gene is 2.362. The “CAP gene expression, relative mRNA expression level compared to the control, Average” value in the assay on CAP gene amounted to 2.362. Further, in the assay with periostin gene, the “PERIOSTIN gene expression, relative mRNA expression level compared to the control, Average” value came to 2.362.
As for 12 (KYKQRRRSYK) [compound 12], the “BSP gene expression, relative mRNA expression level compared to the control, Average” value in the assay with BSP gene turned out to be 2.211. Besides, the “CAP gene expression, relative mRNA expression level compared to the control, Average” value with CAP gene amounted to 2.211. Besides, the “PERIOSTIN gene expression, relative mRNA expression level compared to the control, Average” value in the assay on periostin gene is given as 2.211.
As to 13 (KYKQKKKSYK) [compound 13], the “BSP gene expression, relative mRNA expression level compared to the control, Average” value in the assay on BSP gene was 2.525. In the assay on CAP gene, the “CAP gene expression, relative mRNA expression level compared to the control, Average” value came out at 2.525. Moreover, the “PERIOSTIN gene expression, relative mRNA expression level compared to the control, Average” value with periostin gene is 2.525.
Turning to 14 (KYKQKRKSYK) [compound 14], the “BSP gene expression, relative mRNA expression level compared to the control, Average” value in the assay on BSP gene is reported as 2.836. Also, the “CAP gene expression, relative mRNA expression level compared to the control, Average” value with CAP gene is recorded as 2.836. The “PERIOSTIN gene expression, relative mRNA expression level compared to the control, Average” value in the assay with periostin gene amounted to 2.836.
Regarding 15 (KYKQKKRSYK) [compound 15], the “BSP gene expression, relative mRNA expression level compared to the control, Average” value in the assay on BSP gene was 2.620. Moreover, the “CAP gene expression, relative mRNA expression level compared to the control, Average” value with CAP gene worked out at 2.620. In addition, in the assay on periostin gene, the “PERIOSTIN gene expression, relative mRNA expression level compared to the control, Average” value stood at 2.620.
As to 16 (KYKQKRRSYK) [compound 16], the “BSP gene expression, relative mRNA expression level compared to the control, Average” value in the assay on BSP gene was 2.606. Also, the “CAP gene expression, relative mRNA expression level compared to the control, Average” value with CAP gene turned out to be 2.467. In addition, the “PERIOSTIN gene expression, relative mRNA expression level compared to the control, Average” value in the assay on periostin gene is reported as 2.403.
As for “KYKQKRRSYK [SEQ ID NO: 16, Group 2 peptide, 8th amino acid is serine (S)]”, in assay [1] (setting [2]), the “incorporation of new periodontal ligament fiber bundle into alveolar bone and cementum” value was “A new periodontal ligament fiber bundle was vertically incorporated in the newly formed alveolar bone and cementum”; the “new cementum-like tissue formation” value was “new cementum-like tissue was observed along a tooth root surface”; the “new periodontal ligament-like tissue formation” value was “new periodontal ligament-like tissue formation was also observed”. In assay [1] (hematoxylin/eosin, FIG. 5), the “incorporation of new periodontal ligament into alveolar bone and cementum” value is “New periodontal ligament was incorporated in the newly formed alveolar bone and cementum”; the “new cementum-like tissue formation” value is given as “new cementum-like tissue was observed along a tooth root surface”; the “new periodontal ligament-like tissue formation” value is given as “new periodontal ligament-like tissue formation was also observed”.
